From publication PMC4503722, “Novel Phenotypic Outcomes Identified for a Public Collection of Approved Drugs from a Publicly Accessible Panel of Assays” (PLoS ONE, 2015) come the findings set out here.

Like-named read-outs stand apart in the source and are kept apart here.

For orientation: IC50 means the concentration at which inhibition is half-maximal.

Assay [1] has as its system SNU-C1. Nature of the assay: cells. Particulars: for IC50: read-out: Basal_Viability ATP SNU-C1 summarized IC50; for Basal_Viability ATP SNU-C1 IC50/EC50: assay number 30. It counts as cell-based.
In assay [2] the test system is ECFC/ADSC co-culture cell nuclei number. As to conditions: read-out: VEGF_ADSC\ECFC Angio Hoechst NucArea summarized IC50.
The subject of assay [3] is endothelial tube formation in co-cultures of ECFCs and ADSCs treated with VEGF. Nature of the assay: cells. It counts as cell-based, human. As to conditions: read-out: VEGF_ADSC\ECFC Angio CD31 TubeArea summarized IC50.
In assay [4] the test system is DLD-1. Nature of the assay: cells. It counts as cell-based. As to conditions: for IC50: read-out: Basal_Viability ATP DLD-1 summarized IC50.
In assay [5] the test system is Colo320. Nature of the assay: cells. Particulars: for IC50: read-out: Basal_Viability ATP Colo 320 summarized IC50. It counts as cell-based.
Assay [6] deals with SW480. Nature of the assay: cells. It counts as cell-based. Particulars: for IC50: read-out: Basal_Viability ATP SW480 summarized IC50.
The test system of assay [7] is RKO. Nature of the assay: cells. It counts as cell-based. Particulars: for IC50: read-out: Basal_Viability ATP RKO summarized IC50.
Assay [8] has as its system HCT116 cells treated with a GSK3β inhibitor. Nature of the assay: cells. It counts as cell-based. As to conditions: read-out: GSK3b inh pretreated_Viability ATP HCT116 summarized IC50.
Assay [9] relates to HCT116. Nature of the assay: cells. It counts as cell-based. As to conditions: for IC50: read-out: Basal_Viability ATP HCT116 summarized IC50.
Assay [10] deals with HT-29. Description: cells. It counts as cell-based. Particulars: for IC50: read-out: Basal_Viability ATP HT-29 summarized IC50.
Assay [11] concerns HeLa cells. Description: cells. It counts as cell-based.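 As to Hela CellCycMod PI 4N summarized IC50: value tracks stimulation of 4N DNA content.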

In the case of `Oc1ccc(Cl)cc1Sc1cc(Cl)ccc1O` [NCGC00013679-06], the IC50 turned out to be 1.85 µM in [1]; 8.69 µM in [2]; 3.53 µM in assay [3]; 0.301 µM in [4]; 0.075 µM in [5]; 0.579 µM in assay [6]. Also, the figures for the IC50 in assay [7], in assay [8] and in assay [9] were 0.116 µM, 0.148 µM and 0.183 µM, respectively.

For the compound `CC(C)NCC(O)COc1ccc(CCOCC2CC2)cc1` (stereo not drawn) [NCGC00015159-11], the “Basal_Viability ATP SNU-C1 IC50/EC50” value in assay [1] is above 20 µM. The “Basal_Viability ATP DLD-1 IC50/EC50” value in assay [4] (assay number 23) was above 20 µM. Besides, the “Basal_Viability ATP Colo 320 IC50/EC50” value in assay [5] (assay number 27) is on record as 6.1657 µM. Moreover, the “Basal_Viability ATP SW480 IC50/EC50” value in [6] (assay number 24) is given as above 20 µM. In assay [10] (assay number 28), the “Basal_Viability ATP HT-29 IC50/EC50” value is above 20 µM. In assay [7] (assay number 29), the “Basal_Viability ATP RKO IC50/EC50” value was above 20 µM. In addition, the “Basal_Viability ATP HCT116 IC50/EC50” value in [9] (assay number 25, basal) is listed as above 20 µM.

As to `CC(C(=O)O)c1cccc(C(=O)c2ccccc2)c1` (stereo not drawn) [NCGC00015578-12], the “Basal_Viability ATP SNU-C1 IC50/EC50” value in [1] (basal) amounted to 3.7959 µM. Further, in assay [4] (assay number 23, basal), the “Basal_Viability ATP DLD-1 IC50/EC50” value stood at 8.6441 µM. The “Basal_Viability ATP SW480 IC50/EC50” value in assay [6] (assay number 24, basal) is 10.2684 µM. Also, the “Basal_Viability ATP HT-29 IC50/EC50” value in assay [10] (assay number 28, basal) was 14.387 µM. In addition, the “Basal_Viability ATP HCT116 IC50/EC50” value in assay [9] (assay number 25, basal) worked out at 10.487 µM.

Take `CC(C)(C)NCC(O)c1cc(O)cc(O)c1.CC(C)(C)NCC(O)c1cc(O)cc(O)c1.O=S(=O)(O)O` (stereo not drawn) [NCGC00016010-09]: in assay [4] (assay number 23), the “Basal_Viability ATP DLD-1 IC50/EC50” value is above 20 µM. Also, the “Basal_Viability ATP Colo 320 IC50/EC50” value in assay [5] (assay number 27) was above 20 µM. For the same compound, the “Basal_Viability ATP SW480 IC50/EC50” value in [6] (assay number 24) is given as above 20 µM. For the same compound, the “Basal_Viability ATP HT-29 IC50/EC50” value in assay [10] (assay number 28) is above 20 µM. Moreover, in [7] (assay number 29), the “Basal_Viability ATP RKO IC50/EC50” value is given as above 20 µM. Moreover, the “Basal_Viability ATP HCT116 IC50/EC50” value in assay [9] (assay number 25, basal) is above 20 µM.

For the compound `Oc1c(I)cc(Cl)c2cccnc12` [NCGC00016391-13], the IC50 in [1] is 0.475 µM; in assay [2], above 10 µM; in assay [3] it was above 10 µM; in [4] it was 0.345 µM; in assay [5], 0.586 µM; in [6], 0.441 µM. The IC50 was above 10 µM in assay [11] (read-out: Hela CellCycMod PI 2N summarized IC50); above 10 µM in assay [11] (read-out: Hela CellCycMod PI 4N summarized IC50); above 10 µM in [11] (read-out: Hela CellCycMod PI Cell Number summarized IC50); above 10 µM in assay [11] (read-out: Hela CellCycMod PI MI summarized IC50); 18.6 µM in [10]; 0.392 µM in assay [9].

On to `COc1ccc(C(=O)c2ccccc2O)c(O)c1` [NCGC00016393-07], for which the IC50 was above 20 µM in assay [4] (assay number 23, basal); above 20 µM in assay [5] (assay number 27, basal); above 20 µM in assay [6] (assay number 24, basal); above 20 µM in assay [10] (assay number 28, basal); above 20 µM in assay [7] (assay number 29, basal); above 20 µM in [9] (assay number 25, basal).

As to `[N-]=[N+]=CC(=O)OC[C@H](N)C(=O)O` [NCGC00021876-04], the “Basal_Viability ATP SNU-C1 IC50/EC50” value in assay [1] (basal) is listed as above 20 µM. The “Basal_Viability ATP DLD-1 IC50/EC50” value in assay [4] (assay number 23, basal) was above 20 µM. For the same compound, the “Basal_Viability ATP SW480 IC50/EC50” value in assay [6] (assay number 24, basal) is on record as above 20 µM. Moreover, in [10] (assay number 28, basal), the “Basal_Viability ATP HT-29 IC50/EC50” value is listed as above 20 µM. Also, in assay [7] (assay number 29, basal), the “Basal_Viability ATP RKO IC50/EC50” value is above 20 µM. Further, the “Basal_Viability ATP HCT116 IC50/EC50” value in [9] (assay number 25, basal) is recorded as above 20 µM.
